Values quoted from earlier work, collected in article PMC4306626 (Journal of chromatography. B, Analytical technologies in …, 2015).

Details: cited from earlier work

In the case of `CS(=O)(=O)CCNCc1ccc(-c2ccc3ncnc(Nc4ccc(OCc5cccc(F)c5)c(Cl)c4)c3c2)o1` [lapatinib], the “systemic bioavailability (F)” value (10 mg/kg oral input) is listed as 43 – 50% and the “time-to-peak (Tmax)” value (PO, 10 mg/kg, male mice) is listed as 30 min.
